Laboratory results as given in PubChem BioAssay (NCI).
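1) Cells in 96-well plates. 2) Compound, 48 h, 5 concentrations. 3) Linear interpolation between surrounding doses. 4) Unreached endpoint = highest concentration. GI50 is the concentration that inhibits growth by half. At the TGI there is no net growth.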

Key:
Test in all cases: DTP human tumour cell line panel, 48 h
[1] = test system: UO-31 renal
[2] = test system: SNB-75 CNS
[3] = test system: OVCAR-5 ovarian
[4] = test system: NCI-H460 lung
[5] = test system: ACHN renal
[6] = test system: NCI/ADR-RES ovarian
[7] = test system: LOX IMVI melanoma
[8] = test system: SF-295 CNS
[9] = test system: OVCAR-3 ovarian
[10] = test system: SK-MEL-28 melanoma
[11] = test system: U251 CNS
[12] = test system: DU-145 prostate
[13] = test system: HOP-62 NSCLC
[14] = test system: SK-OV-3 ovarian
[15] = test system: EKVX NSCLC
[16] = test system: T-47D breast
[17] = test system: NCI-H23 lung
[18] = test system: K-562 leukemia
[19] = test system: IGROV1 ovarian
[20] = test system: MDA-MB-231 breast
[21] = test system: HT29 colon
[22] = test system: SR leukemia
[23] = test system: HS 578T breast
[24] = test system: TK-10 renal
[25] = test system: OVCAR-4 ovarian
[26] = test system: NCI-H226 lung
[27] = test system: SNB-19 CNS
[28] = test system: OVCAR-8 ovarian
[29] = test system: COLO 205 colon
[30] = test system: HCT-116 colon
[31] = test system: CAKI-1 renal
[32] = test system: HCT-15 colon
[33] = test system: A498 renal
[34] = test system: RXF 393 renal
[35] = test system: HL-60(TB) leukemia
[36] = test system: KM12 colon
[37] = test system: HCC-2998 colon
[38] = test system: SF-539 CNS
[39] = test system: BT-549 breast
[40] = test system: SK-MEL-5 melanoma
[41] = test system: SK-MEL-2 melanoma
[42] = test system: 786-0 renal
[43] = test system: HOP-92 NSCLC
[44] = test system: PC-3 prostate
[45] = test system: MDA-MB-468 breast
[46] = test system: UACC-257 melanoma
[47] = test system: UACC-62 melanoma
[48] = test system: MDA-MB-435
[49] = test system: NCI-H522 lung
[50] = test system: MCF7 breast
[51] = test system: SN12C renal
[52] = test system: MOLT-4 leukemia
[53] = test system: M14 melanoma
[54] = test system: A549 NSCLC
[55] = test system: RPMI-8226 leukemia
[56] = test system: CCRF-CEM leukemia
[57] = test system: SW-620 colon
[58] = test system: MALME-3M melanoma
[59] = test system: SF-268 CNS

For `CC(Nc1ncnc2ccc(-c3ccc4oc(N)nc4c3)cc12)c1ccccc1` (stereo unspecified), the GI50 [1] was 1.37 µM, the TGI [1] was 4.16 µM and the GI50 [2] was 1.45 µM. It also gave a TGI [2] of 3.61 µM, a GI50 [3] of 3.49 µM and a TGI [3] of 18.7 µM. It also gave a GI50 [4] of 2.34 µM, a TGI [4] of 5.91 µM and a GI50 [5] of 1.84 µM. It also gave a TGI [5] of 4.92 µM, a GI50 [6] of 3.1 µM and a TGI [6] of 11.5 µM. The GI50 [7] was 1.62 µM, the TGI [7] was 3 µM and the GI50 [8] was 2.82 µM. It also gave a TGI [8] of 12.9 µM, a GI50 [9] of 1.67 µM and a TGI [9] of 3.35 µM. For the same molecule, the GI50 [10] was 3.54 µM, the TGI [10] was 15.1 µM and the GI50 [11] was 2.8 µM. For the same molecule, the TGI [11] was 11.6 µM, the GI50 [12] was 2.91 µM and the TGI [12] was 15.6 µM. For the same molecule, the GI50 [13] was 1.63 µM, the TGI [13] was 4.68 µM and the GI50 [14] was 2.65 µM. The TGI [14] was 8.56 µM, the GI50 [15] was 2.73 µM and the TGI [15] was 18.5 µM. The GI50 [16] was 4.06 µM, the TGI [16] was 26 µM and the GI50 [17] was 3.53 µM. It also gave a TGI [17] of 14.5 µM, a GI50 [18] of 3.89 µM and a TGI [18] of 15.5 µM. For the same molecule, the GI50 [19] was 1.45 µM, the TGI [19] was 3.75 µM and the GI50 [20] was 2.59 µM. For the same molecule, the TGI [20] was 6.92 µM, the GI50 [21] was 4.94 µM and the TGI [21] was > 100 µM. The GI50 [22] was 2.9 µM, the TGI [22] was 10.3 µM and the GI50 [23] was 2.04 µM. It also gave a TGI [23] of 5.86 µM, a GI50 [24] of 1.57 µM and a TGI [24] of 5.51 µM. It also gave a GI50 [25] of 2.14 µM, a TGI [25] of 5.16 µM and a GI50 [26] of 1.87 µM. The TGI [26] was 6.21 µM, the GI50 [27] was 3.13 µM and the TGI [27] was 14.6 µM. The GI50 [28] was 2.96 µM, the TGI [28] was 12.6 µM and the GI50 [29] was 5.3 µM. For the same molecule, the TGI [29] was > 100 µM, the GI50 [30] was 2.06 µM and the TGI [30] was 4.78 µM. It also gave a GI50 [31] of 3.52 µM, a TGI [31] of 17.1 µM and a GI50 [32] of 2.85 µM. The TGI [32] was 11.7 µM, the GI50 [33] was 2.3 µM and the TGI [33] was 17.3 µM. It also gave a GI50 [34] of 1.98 µM, a TGI [34] of 5.87 µM and a GI50 [35] of 1.87 µM. For the same molecule, the TGI [35] was 5 µM, the GI50 [36] was 4.27 µM and the TGI [36] was 29 µM. The GI50 [37] was 3.59 µM, the TGI [37] was 15.8 µM and the GI50 [38] was 1.91 µM. The TGI [38] was 4.78 µM, the GI50 [39] was 2.62 µM and the TGI [39] was 11.3 µM. The GI50 [40] was 2.15 µM, the TGI [40] was 5.88 µM and the GI50 [41] was 19.5 µM. It also gave a TGI [41] of 41.7 µM, a GI50 [42] of 2.19 µM and a TGI [42] of 8.59 µM. The GI50 [43] was 2.02 µM, the TGI [43] was 5.62 µM and the GI50 [44] was 4.52 µM. The TGI [44] was 17.1 µM, the GI50 [45] was 1.07 µM and the TGI [45] was 2.8 µM. The GI50 [46] was 5.23 µM, the TGI [46] was 39.5 µM and the GI50 [47] was 3.26 µM. It also gave a TGI [47] of 11.8 µM, a GI50 [48] of 3.84 µM and a TGI [48] of 19.5 µM. The GI50 [49] was 2.83 µM, the TGI [49] was 13.4 µM and the GI50 [50] was 1.59 µM. For the same molecule, the TGI [50] was 3.57 µM, the GI50 [51] was 2.4 µM and the TGI [51] was 7.26 µM. For the same molecule, the GI50 [52] was 2.67 µM, the TGI [52] was 10.4 µM and the GI50 [53] was 4.97 µM. For the same molecule, the TGI [53] was 42.4 µM, the GI50 [54] was 2.75 µM and the TGI [54] was 18.2 µM. For the same molecule, the GI50 [55] was 2.47 µM, the TGI [55] was 13.3 µM and the GI50 [56] was 2.34 µM. The TGI [56] was 10.2 µM, the GI50 [57] was 4.42 µM and the TGI [57] was 18.9 µM. The GI50 [58] was 1.7 µM, the TGI [58] was 3.44 µM and the GI50 [59] was 3.91 µM. The TGI [59] was 54.7 µM.

Molecule `CC1(C)CC[C@]23CC[C@]4(C)[C@H](CC[C@@H]5[C@@]6(C)CC[C@H](N)C(C)(C)[C@@H]6CC[C@]54C)[C@H]2[C@H]1OC3=O` has a GI50 [1] of 1.51 µM, a TGI [1] of 2.87 µM and a GI50 [2] of 1.36 µM. For the same molecule, the TGI [2] was 2.86 µM, the GI50 [3] was 1.65 µM and the TGI [3] was 3.02 µM. It also gave a GI50 [4] of 1.64 µM, a TGI [4] of 3.17 µM and a GI50 [5] of 1.68 µM. The TGI [5] was 3.05 µM, the GI50 [6] was 1.8 µM and the TGI [6] was 3.61 µM. For the same molecule, the GI50 [7] was 1.68 µM, the TGI [7] was 3.05 µM and the GI50 [8] was 1.76 µM. It also gave a TGI [8] of 3.22 µM, a GI50 [9] of 1.66 µM and a TGI [9] of 3.1 µM. It also gave a GI50 [10] of 1.78 µM, a TGI [10] of 3.18 µM and a GI50 [11] of 1.72 µM. The TGI [11] was 3.27 µM, the GI50 [12] was 1.81 µM and the TGI [12] was 3.31 µM. For the same molecule, the GI50 [14] was 12.1 µM, the TGI [14] was 37.3 µM and the GI50 [15] was 1.7 µM. It also gave a TGI [15] of 3.16 µM, a GI50 [17] of 1.74 µM and a TGI [17] of 3.22 µM. The GI50 [18] was 2.53 µM, the TGI [18] was > 100 µM and the GI50 [19] was 1.68 µM. The TGI [19] was 3.1 µM, the GI50 [20] was 1.69 µM and the TGI [20] was 3.09 µM. It also gave a GI50 [22] of 1.59 µM, a TGI [22] of 5.08 µM and a GI50 [23] of 1.89 µM. It also gave a TGI [23] of 4.09 µM, a GI50 [24] of 1.7 µM and a TGI [24] of 3.49 µM. The GI50 [25] was 1.94 µM, the TGI [25] was 3.86 µM and the GI50 [26] was 2.15 µM. It also gave a TGI [26] of 5.47 µM, a GI50 [27] of 1.64 µM and a TGI [27] of 3.05 µM. The GI50 [30] was 1.6 µM, the TGI [30] was 3.05 µM and the GI50 [31] was 1.57 µM. It also gave a TGI [31] of 2.98 µM, a GI50 [32] of 1.64 µM and a TGI [32] of 3.07 µM. The GI50 [33] was 1.48 µM, the TGI [33] was 3.44 µM and the GI50 [34] was 1.63 µM. For the same molecule, the TGI [34] was 3.11 µM, the GI50 [36] was 1.82 µM and the TGI [36] was 3.41 µM. For the same molecule, the GI50 [37] was 1.61 µM, the TGI [37] was 3.02 µM and the GI50 [38] was 1.68 µM. The TGI [38] was 3.05 µM, the GI50 [39] was 1.52 µM and the TGI [39] was 2.92 µM. It also gave a GI50 [40] of 1.75 µM, a TGI [40] of 3.14 µM and a GI50 [41] of 3.02 µM. The TGI [41] was 9.41 µM, the GI50 [42] was 1.45 µM and the TGI [42] was 2.92 µM. It also gave a GI50 [43] of 1.59 µM, a TGI [43] of 3.15 µM and a GI50 [45] of 1.69 µM. It also gave a TGI [45] of 3.18 µM, a GI50 [46] of 1.8 µM and a TGI [46] of 3.43 µM. The GI50 [47] was 1.73 µM, the TGI [47] was 3.19 µM and the GI50 [48] was 1.6 µM. It also gave a TGI [48] of 3.11 µM, a GI50 [50] of 1.57 µM and a TGI [50] of 3.22 µM. It also gave a GI50 [51] of 1.64 µM, a TGI [51] of 3.05 µM and a GI50 [52] of 1.85 µM. For the same molecule, the TGI [52] was 4.38 µM, the GI50 [53] was 1.81 µM and the TGI [53] was 3.34 µM. For the same molecule, the GI50 [55] was 2.1 µM, the TGI [55] was 5.26 µM and the GI50 [57] was 1.44 µM. The TGI [57] was 2.86 µM, the GI50 [58] was 1.67 µM and the TGI [58] was 3.06 µM. The GI50 [59] was 1.69 µM and the TGI [59] was 3.36 µM.
